# Results: patent publication US8993714B2, “Streptavidin macromolecular adaptor and complexes thereof” (Imiplex LLC, priority 2007, dated 2015)
# What was measured:
# streptavidin [1] = biological target: T1, streptavidin (Streptomyces avidinii, UniProt P22629); experiment: Ligand binding to the streptavidin biotin binding site (dissociation constant)
# Excerpt: A strut can be formed from streptavidin (FIG. 1), a tetrameric protein of 60 kiloDalton molecular weight secreted by the bacterium Streptomyces avidinii. […] Part d designates two of the four bound biotins on the same “side” of the tetramer in space filling representation. Part e is a representation of the streptavidin tetramer surface showing overall molecular shape.
# For example, the first and/or the second moiety can be an iminobiotin group. […] However, at pH values of less than or equal to about 4, the imino group on iminobiotin becomes charged, so that it is displaced from the streptavidin binding site. Thus, a structure can be temporarily formed using an iminobiotin-functionalized crosslinking reagent. […] Then, by lowering the pH below 4, the iminobiotin bonds can release, and components of the temporary structure can be washed away. Thus, a bifunctional crosslinking reagent with an iminobiotin group as the first and/or second moiety can be used to form a temporary scaffold, which assists in the construction of a permanent nanostructure.
# More generally, the dyes can be used to monitor the assembly of streptavidin-linked nanostructures.
# MALDI or ESI MS can be used to characterize the species. […] FIGS. 34c and 34d show the structures of the 1:1 and 1:2 Azido-ATP-linked SAV:SAMA complexes. Spectroscopic methods can be used to monitor SAV:SAMA complex formation using a dye displacement approach and using DLS alone or combined with static light scattering.
# streptavidin [2] = biological target: T1, streptavidin; settings: neutral pH; read-out: iminobiotin dissociation constant; cited from earlier work
# [3] = Stability on 4-12% Bis-TRIS MOPS SDS PAGE after heating at 70° C. with reducing agent and SDS; type: physicochemical; settings: 70° C. for 10 minutes with reducing agent and SDS
# Procedure: We established optimal conditions for complex formation. One issue involved the existence of stable dimeric, trimeric and higher aggregates of streptavidin in most preparations (Sano & Cantor 1990b; Kurzban et al. 1991; Waner et al. 2004). We found the aggregates of liganded and unliganded streptavidin stable to heating at 70° C. and the liganded streptavidin aggregates also stable in SDS PAGE running buffers (FIG. 33). We exploited these features in a gel assay to help assess complexation in both denaturing and native gels (see FIG. 33). The left and middle panels of FIG. 33 show complexes of SAMA and streptavidin analyzed on 4-12% Bis-TRIS gels with 3-(N-Morpholino)propanesulfonic acid (MOPS) SDS running buffer. […] Prior to loading, samples were heated at 70° C. for 10 minutes together with reducing agent and SDS. Lanes are numbered on the top and the sample identity (SAMA and linking reagent) given below. Mark12 MW standards (Invitrogen) are in Lane 1. […] Schematics on the left indicate the electrophoretic mobilities of control molecules including the streptavidin monomer, derivatized and underivatized SAMA monomers, the streptavidin:biotin tetramer and higher order aggregates of the streptavidin:biotin tetramer. Brackets and schematics on the right indicate probable electrophoretic mobilities of SAMA:SAV complexes. […]
# T1 sequence (P22629 25-183): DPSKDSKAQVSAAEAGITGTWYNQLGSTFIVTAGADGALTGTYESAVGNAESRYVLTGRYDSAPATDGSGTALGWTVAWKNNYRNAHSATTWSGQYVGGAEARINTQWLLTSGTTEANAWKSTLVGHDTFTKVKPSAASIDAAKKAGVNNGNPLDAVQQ
molecule,measurement,setting,value
"O=C(O)c1ccccc1N=Nc1ccc(O)cc1 [HABA, 4′-hydroxyazobenzene-2-carboxylic acid]",binds more weakly to streptavidin than biotin,streptavidin [1],8 orders of magnitude
same,binds more weakly to streptavidin than iminobiotin,streptavidin [1],5 orders of magnitude
N=C1N[C@H]2[C@H](CS[C@H]2CCCCC(=O)O)N1 [iminobiotin],Kd,streptavidin [2],~0.01 nM
same,"iminobiotin dissociation constant relative to biotin-streptavidin dissociation constant, orders of magnitude greater",streptavidin [1],3 orders of magnitude
streptavidin: tetrameric protein of 60 kiloDalton secreted by Streptomyces avidinii with 4 biotin binding sites,folded state under gel conditions,[3],denatured
